# How the values were obtained:
# NF-κB [1] = test: NF-κB luciferase assay in transfected keratinocytes; type: cell-based, human
# Description: (§1) Keratinocyte cultures were initiated from discarded neonatal foreskins, in which epidermis was separated from dermis using dispase (Mukherjee et al, Chemical and Structural Approaches to Rational Drug Design (Weiner et al., eds.) CRC Press, pp. 237-61 (Boca Raton, 1994). Keratinocytes were induced to proliferating using a low calcium (0.07 mM), serum-free medium (KGM, Clonetics Corp., San Diego, Calif.). Keratinocytes were grown in 10 cm plastic petri dishes, and passaged at 60-70% confluency, and maintained in a humidified incubator at 37° C. with 5% CO2. Keratinocytes were also grown in 8-well Lab Tek Chambers as previously described (Mukherjee et al., supra). Keratinocytes were used between 2 and 4 passages. In some experiments, keratinocytes were pre-treated with KGM containing an elevated calcium ion concentration (i.e. 2 mM) for 24 hrs prior to addition of JAG-1 peptide, or other stimuli as indicated.
# To perform the luciferase-based NF-κB assays, normal keratinocytes were seeded in 6-well plates as previously described (Qin et al., supra). At approximately 50% to 60% confluence, the cells were co-transfected with 0.8 μg of pNF-κB-LUC vector (CLONTECH Laboratories, Palo Alto, Calif.) containing a firefly luciferase gene with K enhancer and 0.2 μg of PRL-TK plasmid DNA which contains Renella Luciferase gene to normalize the transfection efficiency. The same amount of control vector in which the κ enhancer was removed from pNF-κB-LUC was also used to co-transfect the cells.
# DNA was transfected into keratinocytes using Fu-Gene 6 Transfection Reagent (Roche Molecular Biochemicals) according to the manufacturer's protocol. After 36 hours of transfection, cells were treated with either TNF-α (10^3 U/ml; R&D Systems, Minneapolis, Minn.) or the indicated peptides.
# The preparation of cell lysate and luciferase activity measurements were made with DUAL LUCIFERASE™ Reporter Assay System (Promega, Madison Wis.) according to the manufacturer's instructions. The sample was placed in a TD-20/20 luminometer (CLONTECH Laboratories) for detection of light intensity.
# IKKα = IKKα immunocomplex kinase assay; type: cell-based, human; conditions: for kinase activity of IKKα: substrate GST-IκBα (1-54), after 30 and 60 minutes
# Description: For immunoprecipitation 2 μg of anti-IKKα and anti-IKKβ were added to the whole cell lysate for 2 hours on ice. 30 μl of protein A-G sepharose beads were added and incubated at […] for 90 minutes. Beads were washed 3 times in wash buffer, and the beads were boiled with 2xSDS sample buffer. Kinase activity was performed using GST-IκBα as substrate (Hu et al., Science, 284, 316-20 (1999)).
# keratinocytes = test: Terminal differentiation of cultured keratinocyte monolayers; type: cell-based, human; conditions: for loricrin and involucrin immunostaining: 2 mM calcium keratinocyte cultures; for stratification of keratinocyte monolayer: 2 mM calcium, as early as 3 days following addition
# Description: as §1
# (§2) Portions of the epidermal equivalents were fixed in 10% neutral buffered formalin, embedded in paraffin and routinely stained with 1% hematoxylin and eosin. […] When using Lab Tek cultures, these slides were rinsed in PBS and fixed with ice-chilled acetone for 10 mins prior to addition of primary antibodies. Cryostat sections of skin also were fixed using ice-cold acetone. In all cases, a highly sensitive avidin biotin peroxidase procedure (Vectastain Kit, Vector Labs, Burlingame, Calif.) was used with a positive red reaction product obtained using […] as the chromagen.
# epidermal equivalents = test: Living epidermal equivalent model system; type: cell-based, human; conditions: for terminal differentiation and cornification: continuously submerged cultures, 4 days later
# Description: Reconstituted epidermis, known as epidermal equivalents were purchased from MatTek Corp., Ashland, Mass.
# as §2
# For these experiments a living epidermal equivalent model system was used, because it provided an opportunity to examine the individual components of the Notch pathway (i.e. Notch ligand and receptors) before, and after, induction of differentiation for keratinocytes maintained in a multi-layered or stratified configuration that closely resembles normal human skin. Epidermal equivalents consist of keratinocytes grown to produce a multi-layered structure that are initially prepared using submerged keratinocytes. Following this initial preparation, the cultures are exposed to an air-liquid interface in a moistened chamber for three days that can initiate the early stage of differentiation, designated as day 0. Under these conditions, approximately 5-7 layers are produced with a progressive flattening of the top level keratinocytes, which can include occasional cells with keratohyalin granules, and focal appearance of loricrin positive cells and corneocytes. When cultures arrived at day 0, they can either be re-submerged in medium or lifted-up and maintained on a support to create an air-liquid interface within a tissue culture well. After lifting of the cultures, the multi-layered keratinocytes are exposed to the air, with the subjacent membrane being moistened and fed only from the underlying medium within the well. Lifting the cultures at day 0, triggers the terminal differentiation process, which typically is completed within about 5 to about 7 days.
# Notch-1 = test: Western blotting for Notch-1 in MOM-2b cells; type: cell-based; conditions: 100 nM
# Description: Two cultures of MOM-2b cells (an aggressive melanoma cell line) were cultured in standard medium alone or in the presence of 100 nM of a gamma secretase inhibitor, which interferes with Notch signaling (Supont Compound E; Seiffaert et al., J. Biol. Chem., 275, 34086 (2000)). The cells then were lysed and assayed for the presence of Notch-1 by Western blotting.
# MOM-2b cells = test: Invasion through MATRIOEL coated filters; type: cell-based; conditions: MOM-2b cells pretreated overnight with 100 nM
# Description: In a second experiment, MOM-2b cells were pretreated overnight with 100 nM compound E or untreated culture medium and then analyzed for invasive behavior by culturing them on MATRIOEL™ coated filters, into which aggressive melanoma will invade. After 20 hours, cells that have not invaded through the filters were discarded and cells that had migrated into the top of the filters were stained, lysed, and then assayed for absorbance at 350 nm to quantitate the number of cells that had invaded through the filter.
# Cytotoxicity = type: cell-based; conditions: concentrations <300 nM
# p50 and p65 subunits = test: Western blot of keratinocyte nuclei for NF-κB subunits; type: cell-based, human; conditions: keratinocytes in 2 mM calcium; 30 minutes and 1 hour after addition
# Description: (§3) Whole cell lysates, or nuclear and cytoplasmic extracts, were prepared to detect different proteins as previously described (Chaturvedi et al., J. Biol. Chem., 274, 2358-67 (1999)). Briefly, keratinocytes were washed with ice cold phosphate buffered saline (PBS), and harvested by scraping the monolayers into 1 ml PBS, and pelleted in a […] microcentrifuge tube. The cell pellet was suspended in 400 μl of buffer A (10 mM HEPES, 10 mM KCl, 1 mM EDTA, 1 mM EGTA, 1 mM dithiothreitol, 0.5 mM phenylmethlysulfonyl fluoride, and 5 μg/ml leupeptin). After 20 min incubation on ice, 25 μl of 10% Nonidet P-40 was added and then centrifuged briefly. The supernatant represented the cytoplasmic extracts. The nuclear pellet was resuspended in 60-80 μl of buffer C (20 mM HEPES, 0.4 M NaCl, 1 mM EDTA, 1 mM EGTA, 1 mM dithiothreitol, 0.5 mM phenylmethylsulfonyl fluoride, and 5 μg/ml leupeptin) and incubated at 4° C. with shaking for 15 min. The nuclear debris was removed by centrifugation at 4° C.
# (§4) For the whole cell lysate, cells were washed with cold PBS and incubated in CHAPS buffer on ice for 15 min. After centrifugation at 4° C., the supernatants were saved as whole cell lysate. The protein concentration of each sample was determined with Bio-Rad protein assay reagent. […]
# NF-κB [2] = test: Electromobility shift assay (EMSA) of keratinocyte nuclear extracts; type: cell-based, human; conditions: heterodimers p50 and p65 and p50/p50 homodimers
# Description: EMSA were done as described previously (Qin et al., supra). 5 μg of nuclear proteins were incubated on ice with 1 μg of poly(dI-dC) (Amersham Pharmacia Biotech) in a buffer containing 10 mM HEPES, 60 mM KCl, 1 mM dithiothreitol, 1 mM EDTA, and 4% Ficoll for 10 min. The ^32P-labeled double strand NF-κB binding oligonucleotide (10^5 cpm) was then added to the reaction mixture for an additional 20 min on ice. The NF-κB oligonucleotide had the following sequence: SEQ ID NO:14 (5′-[…]-3′). For experiments involving supershift analysis, 2-4 μg of polyclonal antibodies against different subunits of NF-κB (Santa Cruz Biotech) were incubated with nuclear proteins for 30 min on ice prior to addition of ^32P-labeled NF-κB probe. All the reaction mixtures were resolved on 4% polyacrylamide gels.
# IκBα = test: Western blot of keratinocyte cytoplasmic extracts for IκB proteins; type: cell-based, human
# Description: as §3
# For the whole cell lysate, cells were washed with cold PBS and incubated in CHAPS buffer on ice for 15 min. After centrifugation at 4° C., the supernatants were saved as whole cell lysate. The protein concentration of each sample was determined with Bio-Rad protein assay reagent. 30 μg of protein were loaded on 8-12.5% SDS-polyacrylamide gel, transferred to Immobilon-P (polyvinylidene difluoride) membrane and blocked in 5% powdered milk in TBST (50 mM Tris, pH 7.5, 150 mM NaCl, 0.01% Tween 20). The membrane was incubated with primary antibody overnight at 4° C. in 2.5% powdered milk in TBST and then was washed extensively with TBST, and incubated with 1:1500 anti-rabbit or mouse-HRP (Amersham Pharmacia Biotech). Proteins were visualized with the ECL detection kit (Amersham Pharmacia Biotech). The equivalent loading of proteins in each well was confirmed by Ponceau staining.
# Notch 1 = test: Western blot for Notch 1 in keratinocytes; type: cell-based, human; conditions: 6 hours and 24 hours after addition
# Description: as §3, §4
# [3] = test system: Jagged-1 and Notch receptors; test: Immunostaining of cultured keratinocyte monolayers for Jagged-1 and Notch receptors; type: cell-based, human
# Description: as §1, §2
# PKC-alpha = PKC-alpha localization in keratinocytes; type: cell-based, human
# Description: as §2
# [4] = re-submerged day 0 cultures, observed on day 5
compound,measurement,setting,value
TNF-α [reference compound],NF-κB activation (luciferase),NF-κB [1]; high calcium (2 mM) medium,positive control for NF-κB activation
same,NF-κB activation (luciferase),NF-κB [1]; low calcium (0.07 mM) medium,positive control for NF-κB activation
same,kinase activity of IKKα,IKKα,little effect
"R-JAG: second peptide with agonist activity (SEQ ID NO:12) derived from the same region of Jagged-1, with specific amino acid changes (CDDYYYGFGCNKFGRPRDD; r-JAG1 Notch ligand)",kinase activity of IKKα,IKKα,did activate
same,loricrin and involucrin immunostaining,keratinocytes,strong induction
same,stratification of keratinocyte monolayer,keratinocytes,began piling-up to form 3-dimensional stratified clusters
same,terminal differentiation and cornification,epidermal equivalents; 40 μM added on day 0,triggered terminal differentiation and cornification
SC-JAG: scrambled control peptide without agonist activity (SEQ ID NO:13) (RCGPDCFDNYGRYKYCF; Scrambled JAG peptide) [reference compound],kinase activity of IKKα,IKKα,little effect
same,terminal differentiation and cornification,epidermal equivalents; 40 μM added on day 0,not
C[C@H](NC(=O)Cc1cc(F)cc(F)c1)C(=O)N[C@H]1N=C(c2ccccc2)c2ccccc2N(C)C1=O [compound E],activation of Notch-1,Notch-1,completely blocked
same,OD350 (cells invaded through the filter),MOM-2b cells; after 20 hours,0.378
same,inhibition of aggressive behavior in melanoma cells,MOM-2b cells; versus control culture,75%
same,cytotoxicity,Cytotoxicity,did not exhibit cytotoxicity
"JAG-1: synthetic peptide with Notch agonist activity corresponding to Jagged-1 residues 188-204 (SEQ ID NO:11), part of the DSL region (CDDYYYGFGCNKFCRPR; JAG-1 Notch ligand)",NF-κB activation (luciferase),NF-κB [1]; high calcium (2 mM) medium,did trigger NF-κB activation
same,NF-κB activation (luciferase),NF-κB [1]; low calcium (0.07 mM) medium,not low calcium conditions
same,intranuclear levels of p50 and p65 subunits,p50 and p65 subunits,markedly enhanced intranuclear levels
same,NF-κB transcriptional activity (binding to NF-κB probe),NF-κB [2],can activate NF-κB transcriptional activity
same,relatively low constitutive level of IκBα,IκBα; 7-minute to 6-hour time points,slightly reduced
same,cytoplasmic IκBα level (most prominent inhibitory protein),IκBα; after 24 hours,no consistent decline
same,relatively low constitutive level of IκBα,IκBα; after 24 hours,became undetectable
same,Notch 1 levels,Notch 1,decreased to barely detectable levels
same,Notch-1 cellular localization,[3]; 24 hours after stimulation,re-distributed to the cytoplasm
same,Notch 3 immunolocalization,[3]; after addition of peptide,disappearance of both membrane and cytosolic Notch 3
same,Notch 4 immunolocalization,[3]; after peptide stimulation,loss of membrane and cytosolic Notch 4
same,Jagged-1 cellular localization,"[3]; keratinocytes in 2 mM calcium, twenty-four hours after addition",loss of this plasma membrane staining
same,amount of IKKα present,IKKα; immediately following stimulation,not accompanied by any significant change
same,kinase activity of IKKα,IKKα,did activate
same,loricrin and involucrin immunostaining,keratinocytes,strong induction
same,stratification of keratinocyte monolayer,keratinocytes,began piling-up to form 3-dimensional stratified clusters
same,terminal differentiation and cornification,epidermal equivalents; 50 μM added on day 0,triggered terminal differentiation and cornification
same,apoptosis in submerged epidermal equivalent,epidermal equivalents; [4],reduced the apoptotic process
same,loricrin expression in submerged epidermal equivalent,epidermal equivalents; [4],diffuse loricrin expression
same,stratum corneum formation in submerged epidermal equivalent,epidermal equivalents; [4],thick stratum corneum layer
same,PKC-alpha localization,"PKC-alpha; epidermal equivalents, upper layers of differentiated keratinocytes",plasma membrane localization for PKC-alpha
same,PKC-alpha translocation (PKC activation),PKC-alpha; keratinocyte monolayers,induced translocation of PKC-alpha from the cytoplasm to the plasma membrane

# From patent US20020151487A1, “Method and reagents for epithelial barrier formation and treatment of malignant and benign skin disorders by modulating the notch pathway” (Loyola University Chicago, priority 2000, published 2002)
